Data taken from ChEMBL document CHEMBL1201862, “PubChem BioAssay data set” (2004).
Blank lines part the entries; values can stand above or below the compound they belong to. Activity calls are given as the source filed them.

How the values were obtained:
Cytochrome P450 2C9 = Cytochrome P450 2C9 (Homo sapiens, UniProt P11712)
Cytochrome P450 2D6 = Cytochrome P450 2D6 (Homo sapiens, UniProt P10635);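 further: CYP2D6 member of a cytochrome P450 panel assay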
[1] = target: FAD-linked sulfhydryl oxidase ALR (Homo sapiens, UniProt P55789); experiment: ALR-catalysed DTT oxidation blockers – biochemical, H2O2 detection, luminescence, cherry-pick, dose response (AID 493248)
[2] = target: T1, Sentrin-specific protease 7 (Homo sapiens, UniProt Q9BQF6); type: functional;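 further: Luminescence-based dose-response confirmation of ultra-high-throughput screening hits, measuring inhibition of SENP7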
T1 sequence (Q9BQF6 whole entry): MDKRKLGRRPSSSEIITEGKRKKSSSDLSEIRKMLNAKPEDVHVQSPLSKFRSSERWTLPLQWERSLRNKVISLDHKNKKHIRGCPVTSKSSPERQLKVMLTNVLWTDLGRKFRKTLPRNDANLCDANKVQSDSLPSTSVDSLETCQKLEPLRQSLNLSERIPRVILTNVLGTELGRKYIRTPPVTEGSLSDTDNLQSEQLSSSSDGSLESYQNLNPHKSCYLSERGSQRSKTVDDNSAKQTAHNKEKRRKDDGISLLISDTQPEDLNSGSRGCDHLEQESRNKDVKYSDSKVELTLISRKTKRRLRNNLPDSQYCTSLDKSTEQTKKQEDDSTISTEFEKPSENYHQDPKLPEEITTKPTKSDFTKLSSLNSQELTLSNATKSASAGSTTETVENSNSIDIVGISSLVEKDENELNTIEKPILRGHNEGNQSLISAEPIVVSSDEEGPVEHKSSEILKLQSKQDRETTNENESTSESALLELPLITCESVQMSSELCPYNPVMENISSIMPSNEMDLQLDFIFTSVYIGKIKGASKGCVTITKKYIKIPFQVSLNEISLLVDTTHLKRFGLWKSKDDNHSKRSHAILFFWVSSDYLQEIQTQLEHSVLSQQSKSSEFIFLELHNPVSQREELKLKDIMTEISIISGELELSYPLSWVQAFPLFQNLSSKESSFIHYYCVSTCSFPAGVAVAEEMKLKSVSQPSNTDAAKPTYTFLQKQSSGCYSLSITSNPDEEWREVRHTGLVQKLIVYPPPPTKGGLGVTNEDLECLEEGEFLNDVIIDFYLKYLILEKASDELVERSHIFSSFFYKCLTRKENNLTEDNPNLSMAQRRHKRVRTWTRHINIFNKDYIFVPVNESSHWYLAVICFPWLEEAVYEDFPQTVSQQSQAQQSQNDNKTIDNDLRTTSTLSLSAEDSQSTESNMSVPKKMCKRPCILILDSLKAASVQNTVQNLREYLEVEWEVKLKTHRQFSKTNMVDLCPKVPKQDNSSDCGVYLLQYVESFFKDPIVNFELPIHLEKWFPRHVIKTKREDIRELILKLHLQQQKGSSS

CAAX prenyl protease 2 [3] = target: CAAX prenyl protease 2 (Homo sapiens, UniProt Q9Y256); experiment: inhibition of Ras-converting CAAX protease Rce1 – biochemical, yeast membranes, quenched-peptide fluorescence, cherry-pick, dose response (AID 588849)
CAAX prenyl protease 1 = CAAX prenyl protease 1 (Saccharomyces cerevisiae S288c, UniProt P47154); experiment: yeast CAAX protease Ste24 inhibition – biochemical, S. cerevisiae, plate reader, cherry-pick, dose response (AID 488815)
CAAX prenyl protease 2 [4] = target: CAAX prenyl protease 2 (Saccharomyces cerevisiae S288c, UniProt Q03530); type: biochemical
Genome polyprotein = Genome polyprotein (dengue virus type 2, UniProt P29990); experiment: flavivirus cap methylation enzyme inhibition – biochemical, confirmation dose response, primary screen (AID 588689); type: functional
Caspase-3 = target: T2, Caspase-3 (Homo sapiens, UniProt P42574); type: functional;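 further: Dose-response selectivity test against caspase-3 for candidate inhibitors of sentrin-specific proteases (SENPs)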
T2 sequence (P42574 whole entry): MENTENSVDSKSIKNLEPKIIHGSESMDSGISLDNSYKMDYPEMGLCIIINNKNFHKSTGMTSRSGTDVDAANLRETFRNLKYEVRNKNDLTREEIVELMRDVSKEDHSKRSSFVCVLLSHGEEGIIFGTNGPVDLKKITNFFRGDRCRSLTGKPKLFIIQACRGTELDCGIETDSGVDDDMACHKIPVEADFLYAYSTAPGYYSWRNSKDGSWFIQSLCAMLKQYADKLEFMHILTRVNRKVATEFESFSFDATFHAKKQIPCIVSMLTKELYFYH

[5] = target: T3, Sentrin-specific protease 6 (Homo sapiens, UniProt Q9GZR1); type: functional;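 further: Luminescence-based dose-response confirmatory assay of SENP6 inhibition, following up an ultra-high-throughput screen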
T3 sequence (Q9GZR1 whole entry): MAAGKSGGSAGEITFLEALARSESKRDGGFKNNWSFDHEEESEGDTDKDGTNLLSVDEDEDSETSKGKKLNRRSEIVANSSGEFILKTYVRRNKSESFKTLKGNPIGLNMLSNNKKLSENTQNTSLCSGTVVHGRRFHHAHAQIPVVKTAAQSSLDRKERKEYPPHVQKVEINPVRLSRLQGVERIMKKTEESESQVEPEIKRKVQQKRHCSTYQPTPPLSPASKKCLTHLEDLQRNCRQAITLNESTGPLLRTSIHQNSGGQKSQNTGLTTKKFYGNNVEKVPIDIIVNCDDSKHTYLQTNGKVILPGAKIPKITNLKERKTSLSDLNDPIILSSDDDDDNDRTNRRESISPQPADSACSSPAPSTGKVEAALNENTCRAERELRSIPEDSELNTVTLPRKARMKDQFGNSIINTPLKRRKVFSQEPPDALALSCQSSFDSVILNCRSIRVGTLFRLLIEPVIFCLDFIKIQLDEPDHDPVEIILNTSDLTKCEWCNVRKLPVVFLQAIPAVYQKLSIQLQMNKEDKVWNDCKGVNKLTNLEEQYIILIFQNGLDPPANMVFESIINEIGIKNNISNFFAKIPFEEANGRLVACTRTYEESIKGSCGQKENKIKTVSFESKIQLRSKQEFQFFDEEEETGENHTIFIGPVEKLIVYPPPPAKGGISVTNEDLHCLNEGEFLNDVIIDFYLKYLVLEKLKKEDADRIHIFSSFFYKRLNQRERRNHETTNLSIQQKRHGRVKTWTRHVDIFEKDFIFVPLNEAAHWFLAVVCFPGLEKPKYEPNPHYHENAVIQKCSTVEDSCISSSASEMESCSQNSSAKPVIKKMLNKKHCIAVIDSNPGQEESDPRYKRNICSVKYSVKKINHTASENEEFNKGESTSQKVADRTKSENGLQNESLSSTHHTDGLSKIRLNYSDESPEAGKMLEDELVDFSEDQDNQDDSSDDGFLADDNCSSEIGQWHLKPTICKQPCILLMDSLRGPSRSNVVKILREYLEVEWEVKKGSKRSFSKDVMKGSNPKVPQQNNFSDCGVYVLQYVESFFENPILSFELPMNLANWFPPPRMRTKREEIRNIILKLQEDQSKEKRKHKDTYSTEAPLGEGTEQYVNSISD

Trypsin = Trypsin (Sus scrofa, UniProt P00761); experiment: trypsin protease activity blockade – biochemical, quenched peptide fluorescence, cherry-pick, selectivity assay for Rce1 protease inhibitor project, dose response (AID 488789)
[6] = target: T4, Sentrin-specific protease 8 (Homo sapiens, UniProt Q96LD8); type: functional;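 further: luminescence read-out of SENP8 inhibition, dose-response confirmation following an ultra-high-throughput screen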
T4 sequence (Q96LD8 whole entry): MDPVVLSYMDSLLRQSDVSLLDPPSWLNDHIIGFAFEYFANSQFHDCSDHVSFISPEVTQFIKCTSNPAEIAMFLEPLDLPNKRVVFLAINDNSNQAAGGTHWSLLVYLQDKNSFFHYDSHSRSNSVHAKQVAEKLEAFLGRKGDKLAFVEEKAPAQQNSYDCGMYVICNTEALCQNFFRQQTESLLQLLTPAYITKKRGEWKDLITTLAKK

[7] = target: T5, Calpain-2 catalytic subunit (Sus scrofa, UniProt P43367); experiment: m-calpain protease blockers, concentration series – biochemical, fluorogenic peptide substrate, dose response (AID 1420); type: functional
T5 sequence (P43367 whole entry): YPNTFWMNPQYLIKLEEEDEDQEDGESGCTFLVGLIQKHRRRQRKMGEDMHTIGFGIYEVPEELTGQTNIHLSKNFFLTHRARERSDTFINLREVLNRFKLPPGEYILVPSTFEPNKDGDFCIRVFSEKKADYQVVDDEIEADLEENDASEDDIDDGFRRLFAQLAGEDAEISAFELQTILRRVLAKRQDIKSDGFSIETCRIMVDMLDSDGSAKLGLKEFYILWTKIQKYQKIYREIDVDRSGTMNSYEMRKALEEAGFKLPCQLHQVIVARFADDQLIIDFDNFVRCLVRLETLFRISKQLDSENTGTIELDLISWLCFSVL

[8] = target: Nucleotide-binding oligomerization domain-containing protein 2 (Homo sapiens, UniProt Q9HC29); experiment: inhibition of NOD2-driven NF-kB reporter – cell-based, luminescence, uHTS, HEK293 (AID 1566); type: functional
[9] = target: Nucleotide-binding oligomerization domain-containing protein 1 (Homo sapiens, UniProt Q9Y239); experiment: blockers of NOD1 pathway activity – revised, SAR follow-up (AID 2333); type: functional
[10] = HEK-293T viability loss after treatment – luminescence, T-cell screen hits, cytotoxicity control for TCR NF-kB inhibitor project, dose response (AID 489026); type: functional, cell-based;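 further: cells exposed to compound about 14 hours before the viability readout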
HEK293 [11] = experiment: cells; type: functional, cell-based; conditions: Homo sapiens
HEK293 [12] = experiment: cells; type: functional, cell-based; conditions: Homo sapiens; remark: listed apart in the source
HEK293 [13] = experiment: NOD2 signaling inhibitors in MDP-stimulated cells, cell-based, uHTS, luminescence (AID 2001); type: functional; conditions: Homo sapiens
Tumor necrosis factor = Tumor necrosis factor (Homo sapiens, UniProt P01375); experiment: analog potency on TNFa NF-kB signaling – cell-based, revised, SAR follow-up (AID 2337); type: functional
HEK293 [14] = experiment: cells; conditions: Homo sapiens
HEK293 [15] = experiment: inhibition of NOD1-driven NF-kB reporter – cell-based, luminescence, uHTS, primary screen (AID 1578); type: functional; conditions: Homo sapiens
[16] = target: Induced myeloid leukemia cell differentiation protein Mcl-1 (Homo sapiens, UniProt Q07820); type: functional
HEK293 [17] = experiment: cells; type: functional, cell-based; conditions: Homo sapiens; remark: listed apart in the source

Cytochrome P450 2D6, sequence (P10635 whole entry): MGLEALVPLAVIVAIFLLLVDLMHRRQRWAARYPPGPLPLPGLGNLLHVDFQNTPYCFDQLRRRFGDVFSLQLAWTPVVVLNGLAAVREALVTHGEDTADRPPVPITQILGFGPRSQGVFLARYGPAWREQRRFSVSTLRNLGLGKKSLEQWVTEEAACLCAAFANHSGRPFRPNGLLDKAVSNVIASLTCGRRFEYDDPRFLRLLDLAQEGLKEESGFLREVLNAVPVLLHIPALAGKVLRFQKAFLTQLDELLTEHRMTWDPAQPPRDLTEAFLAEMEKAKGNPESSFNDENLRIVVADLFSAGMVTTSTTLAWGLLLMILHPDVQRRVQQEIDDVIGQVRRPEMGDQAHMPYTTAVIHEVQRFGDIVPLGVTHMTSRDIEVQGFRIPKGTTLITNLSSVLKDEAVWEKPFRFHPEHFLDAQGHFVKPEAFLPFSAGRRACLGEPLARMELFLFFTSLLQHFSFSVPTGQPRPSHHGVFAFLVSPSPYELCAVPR
Tumor necrosis factor, sequence (P01375 whole entry): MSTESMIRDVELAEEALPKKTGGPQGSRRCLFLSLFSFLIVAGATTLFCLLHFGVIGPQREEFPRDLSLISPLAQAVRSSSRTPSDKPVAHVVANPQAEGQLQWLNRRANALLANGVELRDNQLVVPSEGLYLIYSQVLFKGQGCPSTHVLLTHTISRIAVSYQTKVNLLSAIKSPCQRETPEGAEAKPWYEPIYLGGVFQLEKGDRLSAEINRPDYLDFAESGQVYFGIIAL
Trypsin, sequence (P00761 whole entry): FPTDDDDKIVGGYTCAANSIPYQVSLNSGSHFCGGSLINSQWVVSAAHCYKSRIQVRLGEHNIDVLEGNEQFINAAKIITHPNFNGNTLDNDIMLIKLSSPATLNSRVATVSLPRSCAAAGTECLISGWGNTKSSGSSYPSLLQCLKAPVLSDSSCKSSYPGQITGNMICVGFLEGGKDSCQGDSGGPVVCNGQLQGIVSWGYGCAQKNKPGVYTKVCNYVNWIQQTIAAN
CAAX prenyl protease 2 (Saccharomyces cerevisiae S288c, UniProt Q03530), sequence (Q03530 whole entry): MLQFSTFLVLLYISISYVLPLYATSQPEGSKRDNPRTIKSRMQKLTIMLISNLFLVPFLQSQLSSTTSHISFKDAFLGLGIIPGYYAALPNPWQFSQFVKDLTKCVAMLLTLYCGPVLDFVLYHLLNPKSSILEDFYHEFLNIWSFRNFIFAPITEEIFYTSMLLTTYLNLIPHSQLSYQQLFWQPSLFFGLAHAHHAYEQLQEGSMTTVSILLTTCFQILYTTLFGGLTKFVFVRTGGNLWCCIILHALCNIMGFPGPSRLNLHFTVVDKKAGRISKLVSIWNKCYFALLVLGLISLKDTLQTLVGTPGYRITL
Nucleotide-binding oligomerization domain-containing protein 2, sequence (Q9HC29 whole entry, the tested form may be a part): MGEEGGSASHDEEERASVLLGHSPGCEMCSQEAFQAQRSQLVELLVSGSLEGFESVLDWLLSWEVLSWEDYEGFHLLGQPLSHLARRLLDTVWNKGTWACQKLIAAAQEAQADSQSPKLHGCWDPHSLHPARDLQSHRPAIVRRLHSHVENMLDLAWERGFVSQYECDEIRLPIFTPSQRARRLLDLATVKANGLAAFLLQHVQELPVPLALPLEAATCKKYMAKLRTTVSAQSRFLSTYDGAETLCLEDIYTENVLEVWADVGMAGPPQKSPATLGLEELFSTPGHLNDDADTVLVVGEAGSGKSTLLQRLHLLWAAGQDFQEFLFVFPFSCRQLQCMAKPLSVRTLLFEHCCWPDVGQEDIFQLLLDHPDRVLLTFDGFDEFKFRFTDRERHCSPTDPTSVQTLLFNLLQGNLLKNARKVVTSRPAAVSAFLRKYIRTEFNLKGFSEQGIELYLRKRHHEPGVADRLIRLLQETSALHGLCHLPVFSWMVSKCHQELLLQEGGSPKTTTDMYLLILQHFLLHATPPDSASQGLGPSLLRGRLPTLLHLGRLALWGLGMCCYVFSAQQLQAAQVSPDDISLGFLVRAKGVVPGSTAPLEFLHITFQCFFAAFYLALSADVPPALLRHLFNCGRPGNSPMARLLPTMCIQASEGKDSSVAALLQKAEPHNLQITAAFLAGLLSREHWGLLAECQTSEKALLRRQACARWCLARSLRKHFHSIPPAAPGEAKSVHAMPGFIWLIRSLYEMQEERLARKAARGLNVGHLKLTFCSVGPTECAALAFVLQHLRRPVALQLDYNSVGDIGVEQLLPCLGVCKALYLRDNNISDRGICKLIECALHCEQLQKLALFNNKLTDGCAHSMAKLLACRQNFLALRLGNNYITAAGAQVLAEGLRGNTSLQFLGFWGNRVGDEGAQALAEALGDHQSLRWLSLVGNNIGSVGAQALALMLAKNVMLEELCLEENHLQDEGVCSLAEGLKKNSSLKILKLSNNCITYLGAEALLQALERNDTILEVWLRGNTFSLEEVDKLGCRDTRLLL
CAAX prenyl protease 1, sequence (P47154 whole entry): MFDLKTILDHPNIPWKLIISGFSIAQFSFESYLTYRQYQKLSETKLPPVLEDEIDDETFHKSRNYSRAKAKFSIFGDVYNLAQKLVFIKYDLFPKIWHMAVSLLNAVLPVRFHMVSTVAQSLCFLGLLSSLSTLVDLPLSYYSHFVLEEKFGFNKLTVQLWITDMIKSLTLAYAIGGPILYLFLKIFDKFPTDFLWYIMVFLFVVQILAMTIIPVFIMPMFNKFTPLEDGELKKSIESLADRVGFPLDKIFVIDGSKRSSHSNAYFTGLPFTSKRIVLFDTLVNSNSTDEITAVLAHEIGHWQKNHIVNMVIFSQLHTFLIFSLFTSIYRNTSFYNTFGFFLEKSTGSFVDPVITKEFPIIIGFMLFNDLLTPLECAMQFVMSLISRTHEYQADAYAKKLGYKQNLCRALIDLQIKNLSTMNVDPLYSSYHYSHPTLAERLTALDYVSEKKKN
CAAX prenyl protease 2 (Homo sapiens, UniProt Q9Y256), sequence (Q9Y256 whole entry): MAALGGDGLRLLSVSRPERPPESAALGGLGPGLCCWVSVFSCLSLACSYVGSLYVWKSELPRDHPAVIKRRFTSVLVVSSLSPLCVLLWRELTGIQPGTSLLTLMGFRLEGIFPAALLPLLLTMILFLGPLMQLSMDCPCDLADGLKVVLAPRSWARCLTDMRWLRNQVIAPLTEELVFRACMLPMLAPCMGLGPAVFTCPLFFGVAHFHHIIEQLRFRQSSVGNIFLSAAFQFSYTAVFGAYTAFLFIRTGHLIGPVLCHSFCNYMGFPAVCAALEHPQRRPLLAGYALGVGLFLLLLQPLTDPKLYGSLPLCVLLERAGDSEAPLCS
Genome polyprotein, sequence (P29990 2492-3391 limits assumed): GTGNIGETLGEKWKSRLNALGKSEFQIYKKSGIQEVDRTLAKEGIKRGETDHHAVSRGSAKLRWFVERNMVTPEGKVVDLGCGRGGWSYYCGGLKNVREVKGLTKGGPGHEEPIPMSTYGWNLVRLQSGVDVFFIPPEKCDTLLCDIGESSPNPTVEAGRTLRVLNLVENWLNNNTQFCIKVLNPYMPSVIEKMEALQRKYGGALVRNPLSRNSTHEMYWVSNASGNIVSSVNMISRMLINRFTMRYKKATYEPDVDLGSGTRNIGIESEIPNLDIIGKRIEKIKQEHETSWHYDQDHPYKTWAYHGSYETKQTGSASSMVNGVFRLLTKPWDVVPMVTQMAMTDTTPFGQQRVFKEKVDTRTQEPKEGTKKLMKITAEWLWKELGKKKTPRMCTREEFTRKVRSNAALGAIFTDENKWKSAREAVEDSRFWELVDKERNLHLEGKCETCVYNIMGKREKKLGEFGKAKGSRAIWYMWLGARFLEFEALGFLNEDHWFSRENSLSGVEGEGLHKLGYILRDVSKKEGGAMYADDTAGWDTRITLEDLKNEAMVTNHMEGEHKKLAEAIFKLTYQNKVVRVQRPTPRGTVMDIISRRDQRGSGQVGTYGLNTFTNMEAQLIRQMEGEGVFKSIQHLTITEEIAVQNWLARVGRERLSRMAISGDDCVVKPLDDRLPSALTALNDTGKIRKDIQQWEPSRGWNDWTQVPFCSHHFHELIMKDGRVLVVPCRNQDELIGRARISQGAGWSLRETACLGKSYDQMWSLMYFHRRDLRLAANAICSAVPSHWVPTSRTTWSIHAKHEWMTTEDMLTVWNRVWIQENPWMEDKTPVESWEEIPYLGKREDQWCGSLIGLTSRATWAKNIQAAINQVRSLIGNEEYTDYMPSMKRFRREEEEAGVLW
Cytochrome P450 2C9, sequence (P11712 whole entry): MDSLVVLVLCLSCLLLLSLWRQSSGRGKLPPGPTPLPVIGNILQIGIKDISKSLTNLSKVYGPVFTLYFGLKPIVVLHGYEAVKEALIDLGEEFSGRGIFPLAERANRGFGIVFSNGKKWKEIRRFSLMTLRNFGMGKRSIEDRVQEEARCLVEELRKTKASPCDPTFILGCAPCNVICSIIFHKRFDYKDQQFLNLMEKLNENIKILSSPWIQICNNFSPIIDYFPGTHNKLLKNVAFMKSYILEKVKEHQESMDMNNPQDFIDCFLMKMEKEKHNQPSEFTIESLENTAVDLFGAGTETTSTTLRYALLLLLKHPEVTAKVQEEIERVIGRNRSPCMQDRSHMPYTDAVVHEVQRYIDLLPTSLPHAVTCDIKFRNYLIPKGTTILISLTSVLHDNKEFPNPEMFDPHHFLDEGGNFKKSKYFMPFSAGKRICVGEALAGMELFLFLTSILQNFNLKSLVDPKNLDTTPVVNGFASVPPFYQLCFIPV
FAD-linked sulfhydryl oxidase ALR, sequence (P55789 whole entry): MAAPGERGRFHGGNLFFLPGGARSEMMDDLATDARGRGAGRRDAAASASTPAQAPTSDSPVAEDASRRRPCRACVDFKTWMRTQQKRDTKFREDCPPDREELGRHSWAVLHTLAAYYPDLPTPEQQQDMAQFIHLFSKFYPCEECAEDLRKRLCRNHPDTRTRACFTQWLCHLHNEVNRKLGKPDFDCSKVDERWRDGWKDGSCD

AC50 (Cytochrome P450 2C9): 0.0794 µM (inconclusive) | AC50 (Cytochrome P450 2D6): inconclusive
Structure (SMILES): Nn1c(SCC(=O)N2CCOCC2)nnc1-c1ccccc1Cl

AC50 [1]: 2.1 µM (active) | IC50 [2]: 3.24 µM (active) | AC50 (CAAX prenyl protease 2 [3]): 5.18 µM (active) | AC50 (CAAX prenyl protease 1): 5.53 µM (active) | AC50 (CAAX prenyl protease 2 [4]): 4.78 µM (active) | IC50 (Genome polyprotein): 64.1 µM (active) | IC50 (Caspase-3): 22.7 µM (active) | IC50 [5]: 2.6 µM (active) | AC50 (Trypsin): 13.8 µM (active) | IC50 [7]: < 0.4 µM (not active)
Structure (SMILES): O=C(O)c1ccc(N/N=C/c2cn(Cc3ccccc3F)c3ccccc23)cc1
IC50 [6]: 2.92 µM (active)

Structure (SMILES): COC(=O)c1ccc2nc(Nc3nc4c(F)cc(F)cc4s3)sc2c1
EC50 [8]: 0.3 µM (active) | IC50 [9]: 0.429 µM (active) | IC50 [10]: > 80 µM (inactive) | IC50 (HEK293 [11]): 0.666 µM (active) | IC50 (HEK293 [12]): > 20 µM (inactive) | IC50 (HEK293 [13]): 1.92 µM (active) | IC50 (Tumor necrosis factor): 0.23 µM (active) | IC50 (HEK293 [14]): 9.76 µM (active) | EC50 (HEK293 [15]): 3.03 µM (active) | IC50 [16]: 2.8 µM (active) | IC50 (HEK293 [17]): > 20 µM (inactive)
